Laboratory results published in article PMC7316778 (Nature Communications, 2020).
“And” between values parts separate entries of the source, which are not always exact repeats. Identical values can stand only once. Like-named read-outs stand apart in the source and are kept apart here.

Assays:
Assay in all cases: SelectScreen kinase assay
CAMK1 (CaMK1) = CAMK1 (CaMK1) (Homo sapiens, UniProt Q14012); details: 1 h, 1 μM WEL028, 1 h preincubation
Procedure: (§1) Selectivity profiling assays were performed by the Invitrogen SelectScreen™ Services. […] The concentration of ATP was selected to be equal to the KM, unless indicated otherwise.

EPHA5 = EPHA5 (Homo sapiens, UniProt P54756)
Procedure: as §1

MLCK (MLCK2) = target: T1, MLCK (MLCK2) (Homo sapiens, UniProt Q32MK0)
T1 sequence (Q32MK0 1-819): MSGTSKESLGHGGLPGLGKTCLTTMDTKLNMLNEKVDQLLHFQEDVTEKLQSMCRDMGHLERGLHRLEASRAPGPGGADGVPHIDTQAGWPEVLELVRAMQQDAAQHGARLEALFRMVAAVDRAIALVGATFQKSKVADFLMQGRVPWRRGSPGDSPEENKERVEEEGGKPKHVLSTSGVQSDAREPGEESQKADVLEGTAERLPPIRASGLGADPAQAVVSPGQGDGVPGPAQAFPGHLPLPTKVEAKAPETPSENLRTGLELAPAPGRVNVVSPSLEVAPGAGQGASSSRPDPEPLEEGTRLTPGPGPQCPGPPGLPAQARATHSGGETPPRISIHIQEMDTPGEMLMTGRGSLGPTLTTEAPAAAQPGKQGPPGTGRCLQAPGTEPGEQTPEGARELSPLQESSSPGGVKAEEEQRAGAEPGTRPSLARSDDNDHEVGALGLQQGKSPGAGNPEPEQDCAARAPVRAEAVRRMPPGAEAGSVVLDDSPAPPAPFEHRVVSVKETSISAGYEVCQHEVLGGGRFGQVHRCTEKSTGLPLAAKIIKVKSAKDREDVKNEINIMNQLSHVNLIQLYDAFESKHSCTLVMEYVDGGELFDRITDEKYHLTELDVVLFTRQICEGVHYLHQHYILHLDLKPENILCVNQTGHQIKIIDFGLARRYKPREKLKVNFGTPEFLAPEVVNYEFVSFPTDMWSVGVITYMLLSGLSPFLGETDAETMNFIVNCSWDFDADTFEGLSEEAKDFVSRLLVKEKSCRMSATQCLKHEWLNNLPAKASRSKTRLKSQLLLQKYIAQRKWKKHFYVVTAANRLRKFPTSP
Procedure: as §1

[1] = target: PIK3CB/PIK3R1 (p110 beta/p85 alpha) (Homo sapiens, UniProt P42338)
Sequence of PIK3CB/PIK3R1 (p110 beta/p85 alpha) (P42338 whole entry): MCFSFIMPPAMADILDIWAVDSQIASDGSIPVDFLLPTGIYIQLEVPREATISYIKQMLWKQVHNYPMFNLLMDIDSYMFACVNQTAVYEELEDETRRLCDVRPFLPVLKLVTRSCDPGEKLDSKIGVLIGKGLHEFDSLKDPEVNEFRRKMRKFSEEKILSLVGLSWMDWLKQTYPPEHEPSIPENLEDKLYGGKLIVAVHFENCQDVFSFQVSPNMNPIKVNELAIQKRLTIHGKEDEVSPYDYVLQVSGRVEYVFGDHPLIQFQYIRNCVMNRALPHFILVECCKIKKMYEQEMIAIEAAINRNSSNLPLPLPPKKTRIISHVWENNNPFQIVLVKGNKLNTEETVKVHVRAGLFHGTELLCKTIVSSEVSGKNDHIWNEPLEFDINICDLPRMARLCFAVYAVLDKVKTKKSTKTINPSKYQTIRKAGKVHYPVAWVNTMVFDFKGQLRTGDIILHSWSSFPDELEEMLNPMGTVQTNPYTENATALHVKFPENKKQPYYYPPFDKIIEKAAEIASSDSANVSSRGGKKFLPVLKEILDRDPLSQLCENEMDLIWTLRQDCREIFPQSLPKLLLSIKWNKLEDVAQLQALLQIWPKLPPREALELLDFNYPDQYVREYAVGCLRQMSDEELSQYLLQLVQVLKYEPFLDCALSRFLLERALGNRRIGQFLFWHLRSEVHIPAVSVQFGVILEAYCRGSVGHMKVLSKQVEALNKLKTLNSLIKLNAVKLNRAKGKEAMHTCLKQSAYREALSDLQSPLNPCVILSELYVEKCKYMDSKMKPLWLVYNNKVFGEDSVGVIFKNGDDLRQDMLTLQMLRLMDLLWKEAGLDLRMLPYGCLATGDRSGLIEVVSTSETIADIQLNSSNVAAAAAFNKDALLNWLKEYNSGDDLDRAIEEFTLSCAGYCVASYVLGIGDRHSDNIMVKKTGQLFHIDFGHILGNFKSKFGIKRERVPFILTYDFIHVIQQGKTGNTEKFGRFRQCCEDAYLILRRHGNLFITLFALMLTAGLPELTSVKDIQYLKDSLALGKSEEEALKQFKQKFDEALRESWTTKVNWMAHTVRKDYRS
Sequence of PIK3CB/PIK3R1 (p110 beta/p85 alpha) (P27986 whole entry partner): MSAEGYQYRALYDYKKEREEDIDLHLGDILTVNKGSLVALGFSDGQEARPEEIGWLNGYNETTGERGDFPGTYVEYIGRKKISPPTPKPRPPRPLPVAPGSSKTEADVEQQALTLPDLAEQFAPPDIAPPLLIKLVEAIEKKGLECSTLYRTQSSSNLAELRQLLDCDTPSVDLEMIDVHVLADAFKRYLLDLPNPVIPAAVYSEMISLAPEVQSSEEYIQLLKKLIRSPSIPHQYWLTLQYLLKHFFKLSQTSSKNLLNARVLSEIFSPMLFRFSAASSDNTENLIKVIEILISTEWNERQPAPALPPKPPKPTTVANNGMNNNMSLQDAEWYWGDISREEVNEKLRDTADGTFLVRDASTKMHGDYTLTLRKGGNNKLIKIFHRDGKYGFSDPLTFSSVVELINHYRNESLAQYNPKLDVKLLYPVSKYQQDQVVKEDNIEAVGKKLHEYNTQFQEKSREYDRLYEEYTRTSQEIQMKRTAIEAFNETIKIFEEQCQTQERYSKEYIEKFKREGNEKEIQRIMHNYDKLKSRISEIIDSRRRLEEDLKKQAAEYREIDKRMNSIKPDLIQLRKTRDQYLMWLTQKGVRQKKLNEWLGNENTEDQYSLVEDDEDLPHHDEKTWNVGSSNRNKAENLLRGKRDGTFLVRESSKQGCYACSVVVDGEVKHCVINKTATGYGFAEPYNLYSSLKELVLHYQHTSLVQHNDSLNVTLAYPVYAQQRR
Procedure: as §1

PKN1 (PRK1) = PKN1 (PRK1) (Homo sapiens, UniProt Q16512)
Procedure: as §1

PRKCZ (PKC zeta) = target: T2, PRKCZ (PKC zeta) (Homo sapiens, UniProt Q05513); details: for Inhibition at 1 µM (%): PRKCZ (PKC zeta), ZLYTE, ATP Km app
T2 sequence (Q05513 1-592): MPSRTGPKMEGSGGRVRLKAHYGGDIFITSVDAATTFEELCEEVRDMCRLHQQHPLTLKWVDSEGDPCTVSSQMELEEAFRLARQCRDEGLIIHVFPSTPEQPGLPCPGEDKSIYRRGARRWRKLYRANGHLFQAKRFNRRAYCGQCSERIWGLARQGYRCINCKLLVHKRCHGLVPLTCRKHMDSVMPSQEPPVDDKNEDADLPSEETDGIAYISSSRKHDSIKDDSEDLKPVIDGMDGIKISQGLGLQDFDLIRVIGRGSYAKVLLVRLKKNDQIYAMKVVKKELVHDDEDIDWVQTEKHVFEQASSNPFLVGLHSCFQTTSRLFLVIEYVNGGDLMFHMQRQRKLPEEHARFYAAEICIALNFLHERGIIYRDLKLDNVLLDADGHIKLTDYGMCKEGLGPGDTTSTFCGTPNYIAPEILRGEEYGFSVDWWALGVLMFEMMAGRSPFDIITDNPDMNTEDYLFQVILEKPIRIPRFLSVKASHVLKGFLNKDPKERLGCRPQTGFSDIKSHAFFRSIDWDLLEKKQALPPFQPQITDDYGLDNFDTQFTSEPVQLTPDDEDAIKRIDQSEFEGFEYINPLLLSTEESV
Procedure: as §1

SRPK1 = SRPK1 (Homo sapiens, UniProt Q96SB4)
Sequence of SRPK1 (Q96SB4 whole entry): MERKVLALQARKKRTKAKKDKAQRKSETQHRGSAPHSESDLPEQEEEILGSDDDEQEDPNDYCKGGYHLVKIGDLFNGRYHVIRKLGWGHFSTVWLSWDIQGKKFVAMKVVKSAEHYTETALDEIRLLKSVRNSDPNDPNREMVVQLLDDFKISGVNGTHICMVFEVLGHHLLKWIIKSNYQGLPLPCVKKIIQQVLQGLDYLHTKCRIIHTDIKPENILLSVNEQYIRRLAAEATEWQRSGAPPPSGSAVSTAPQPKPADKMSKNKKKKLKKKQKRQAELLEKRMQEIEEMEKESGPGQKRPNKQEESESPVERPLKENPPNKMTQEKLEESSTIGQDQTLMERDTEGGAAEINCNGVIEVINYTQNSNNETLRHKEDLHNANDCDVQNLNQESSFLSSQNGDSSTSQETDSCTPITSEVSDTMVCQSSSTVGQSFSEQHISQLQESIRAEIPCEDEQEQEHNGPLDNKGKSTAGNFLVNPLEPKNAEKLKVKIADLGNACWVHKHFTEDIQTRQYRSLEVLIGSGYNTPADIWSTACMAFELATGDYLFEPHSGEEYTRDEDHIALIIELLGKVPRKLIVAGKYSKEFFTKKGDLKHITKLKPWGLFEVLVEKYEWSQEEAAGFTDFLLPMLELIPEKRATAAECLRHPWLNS
Procedure: as §1

STK16 (PKL12) = STK16 (PKL12) (Homo sapiens, UniProt O75716)
Sequence of STK16 (PKL12) (O75716 whole entry): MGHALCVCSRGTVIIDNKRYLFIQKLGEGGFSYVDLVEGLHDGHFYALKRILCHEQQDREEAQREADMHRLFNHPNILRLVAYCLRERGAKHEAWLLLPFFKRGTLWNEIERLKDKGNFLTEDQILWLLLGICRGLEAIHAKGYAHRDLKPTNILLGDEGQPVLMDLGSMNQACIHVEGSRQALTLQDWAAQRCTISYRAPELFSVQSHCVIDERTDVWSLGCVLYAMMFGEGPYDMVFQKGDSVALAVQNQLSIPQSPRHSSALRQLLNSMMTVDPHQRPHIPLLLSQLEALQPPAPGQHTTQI
Procedure: as §1

TGFBR2 = TGFBR2 (Homo sapiens, UniProt P37173)
Procedure: as §1

ZAK = ZAK (Homo sapiens, UniProt Q9NYL2); details: for Inhibition at 1 µM (%): LanthaScreen Binding
Sequence of ZAK (Q9NYL2 whole entry): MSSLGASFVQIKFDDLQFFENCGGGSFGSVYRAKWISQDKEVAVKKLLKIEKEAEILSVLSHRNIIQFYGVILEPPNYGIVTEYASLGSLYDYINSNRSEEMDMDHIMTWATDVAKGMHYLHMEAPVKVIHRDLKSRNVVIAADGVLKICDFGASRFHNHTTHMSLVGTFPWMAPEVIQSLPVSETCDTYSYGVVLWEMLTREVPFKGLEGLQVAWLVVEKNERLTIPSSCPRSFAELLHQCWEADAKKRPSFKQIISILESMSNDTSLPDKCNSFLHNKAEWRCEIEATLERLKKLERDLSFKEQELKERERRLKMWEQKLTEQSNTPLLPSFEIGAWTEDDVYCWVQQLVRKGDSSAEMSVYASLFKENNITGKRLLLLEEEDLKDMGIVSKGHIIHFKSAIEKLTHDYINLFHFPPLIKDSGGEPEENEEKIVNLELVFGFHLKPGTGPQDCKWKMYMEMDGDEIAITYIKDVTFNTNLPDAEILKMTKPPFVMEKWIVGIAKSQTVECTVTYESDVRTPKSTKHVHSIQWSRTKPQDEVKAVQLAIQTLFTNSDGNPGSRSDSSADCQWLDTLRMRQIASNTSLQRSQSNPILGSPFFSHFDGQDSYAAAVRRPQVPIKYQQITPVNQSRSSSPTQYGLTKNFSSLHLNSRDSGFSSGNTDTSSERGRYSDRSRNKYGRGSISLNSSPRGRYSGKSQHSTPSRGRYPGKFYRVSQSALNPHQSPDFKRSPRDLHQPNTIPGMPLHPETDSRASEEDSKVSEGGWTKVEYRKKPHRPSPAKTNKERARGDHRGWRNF
Procedure: as §1

[2] = 1 h, 1 μM WEL028, 1 h preincubation
[3] = 1 µM, LanthaScreen Binding, listed as WEL028, 1 µM
[4] = read-out: Inhibition at 1 µM (%), 1 µM, LanthaScreen Binding

Sequence of EPHA5 (P54756 25-1037): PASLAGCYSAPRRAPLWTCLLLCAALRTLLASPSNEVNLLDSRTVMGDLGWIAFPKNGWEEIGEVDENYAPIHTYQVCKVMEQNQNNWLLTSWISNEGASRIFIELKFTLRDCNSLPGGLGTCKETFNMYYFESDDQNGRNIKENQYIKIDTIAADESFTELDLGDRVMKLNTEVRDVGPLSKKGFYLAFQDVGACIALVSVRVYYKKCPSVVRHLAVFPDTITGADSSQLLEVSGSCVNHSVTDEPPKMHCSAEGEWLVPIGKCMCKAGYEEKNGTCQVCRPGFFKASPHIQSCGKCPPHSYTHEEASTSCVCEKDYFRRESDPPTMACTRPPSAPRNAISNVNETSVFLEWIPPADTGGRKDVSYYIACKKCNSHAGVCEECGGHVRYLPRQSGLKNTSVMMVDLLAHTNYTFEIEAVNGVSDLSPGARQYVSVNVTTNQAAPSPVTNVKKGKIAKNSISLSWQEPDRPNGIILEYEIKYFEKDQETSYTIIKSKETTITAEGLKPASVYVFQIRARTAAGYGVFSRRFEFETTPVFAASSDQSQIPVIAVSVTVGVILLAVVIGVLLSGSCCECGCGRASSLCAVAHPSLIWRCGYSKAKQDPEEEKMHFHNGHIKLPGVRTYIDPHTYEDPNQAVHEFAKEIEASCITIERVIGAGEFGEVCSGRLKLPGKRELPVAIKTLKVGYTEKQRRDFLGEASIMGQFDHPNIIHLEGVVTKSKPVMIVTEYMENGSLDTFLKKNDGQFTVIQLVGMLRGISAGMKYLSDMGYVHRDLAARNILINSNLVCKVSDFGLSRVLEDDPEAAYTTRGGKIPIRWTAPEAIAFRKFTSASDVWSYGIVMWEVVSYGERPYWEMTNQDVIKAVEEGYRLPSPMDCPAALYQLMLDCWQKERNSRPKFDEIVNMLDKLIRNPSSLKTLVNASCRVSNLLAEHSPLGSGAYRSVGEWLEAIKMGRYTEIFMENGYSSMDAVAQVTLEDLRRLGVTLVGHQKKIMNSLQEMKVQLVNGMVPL
Sequence of CAMK1 (CaMK1) (Q14012 whole entry): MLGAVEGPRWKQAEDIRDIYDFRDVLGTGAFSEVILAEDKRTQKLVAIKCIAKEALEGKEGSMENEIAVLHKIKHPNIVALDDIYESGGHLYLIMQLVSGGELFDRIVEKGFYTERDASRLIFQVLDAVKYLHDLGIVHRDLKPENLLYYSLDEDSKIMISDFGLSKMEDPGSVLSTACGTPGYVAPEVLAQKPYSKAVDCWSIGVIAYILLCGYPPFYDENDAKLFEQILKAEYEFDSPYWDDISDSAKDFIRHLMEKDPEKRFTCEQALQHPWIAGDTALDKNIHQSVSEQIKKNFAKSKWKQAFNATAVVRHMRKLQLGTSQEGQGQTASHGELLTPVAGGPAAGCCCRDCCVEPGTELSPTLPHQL

**Q.** What does the source list for `C#CCOc1ccc(Nc2ncc(Cl)c(Nc3ccccc3NC(=O)C=C)n2)c(OC)c1` [Compound 6]?
**A.** inhibition at 1 µM (CAMK1 (CaMK1)): 6%; Inhibition (%) (EPHA5; 1 μM WEL028, 1 h preincubation): 0%; Inhibition at 1 µM (%) (EPHA5; EPHA5, 1 µM, ZLYTE, ATP Km app, listed as WEL028, 1 µM): 3% and -2%; inhibition at 1 µM (MLCK (MLCK2); [2]): 9%; Inhibition at 1 µM (%) (MLCK (MLCK2); MLCK (MLCK2), 1 µM, LanthaScreen Binding, listed as WEL028, 1 µM): 8%; inhibition at 1 µM (MLCK (MLCK2); read-out: Inhibition at 1 µM (%), MLCK (MLCK2), 1 µM, LanthaScreen Binding): 9%; inhibition at 1 µM [1, 2]: -8%; Inhibition at 1 µM (%) ([1]; PIK3CB/PIK3R1 (p110 beta/p85 alpha), 1 µM, Adapta, ATP Km app, listed as WEL028, 1 µM): -10% and -7%; inhibition at 1 µM (PKN1 (PRK1); [2]): 7%; Inhibition at 1 µM (%) (PKN1 (PRK1); PKN1 (PRK1), 1 µM, ZLYTE, ATP Km app, listed as WEL028, 1 µM): 5%; inhibition at 1 µM (PKN1 (PRK1); read-out: Inhibition at 1 µM (%), PKN1 (PRK1), 1 µM, ZLYTE, ATP Km app): 8%; inhibition at 1 µM (PRKCZ (PKC zeta); [2]): -1%; Inhibition at 1 µM (%) (PRKCZ (PKC zeta)): 3%; Inhibition at 1 µM (%) (PRKCZ (PKC zeta); listed as WEL028, 1 µM): -5%; Inhibition at 1 µM (%) (SRPK1; 1 µM, ZLYTE, ATP Km app, listed as WEL028, 1 µM): 2% and 11%; inhibition at 1 µM (SRPK1; [2]): 7%; Inhibition at 1 µM (%) (STK16 (PKL12); [3]): 29%; inhibition at 1 µM (STK16 (PKL12); [2]): 32%; inhibition at 1 µM (STK16 (PKL12); [4]): 35%; Inhibition at 1 µM (%) (TGFBR2; [3]): 11%; inhibition at 1 µM (TGFBR2; [2]): 14%; inhibition at 1 µM (TGFBR2; [4]): 17%; Inhibition at 1 µM (%) (ZAK): 2%; Inhibition at 1 µM (%) (ZAK; listed as WEL028, 1 µM): 6%; inhibition at 1 µM (ZAK; [2]): 4%
